Where “and” joins values, the source holds several entries; their conditions need not be identical. Equal entries are not always repeated. After the bases stand the sugars from the 5' end (letter, count) and the backbone: PS all phosphorothioate, else s phosphorothioate and o phosphodiester by linkage. Methylation of C is not given here. e = 2'-O-(2-methoxyethyl) (MOE); k = constrained ethyl (cEt); d = 2'-deoxy (DNA); m = 2'-O-methyl

This series has as its target HSD17B13. Conditions: ASO, HepaRG.

In the case of GTTAGTATAGTTATCT (sugars k3 d10 k3, PS), the target mRNA inhibition runs as follows: (0.02 µM) 0%; (0.078 µM) 17%; (0.313 µM) 40%; (1 µM) 66%; (1.25 µM) 74%; (5 µM) 86%.
Consider “TCGGTCACCTTTCATA (sugars kkdddddddddkekek, PS)”, for which, under “1 µM”, the target mRNA inhibition was found to be 63%.
On the same count and under the same terms, with TCAGACTTCTTACGAC (sugars k3 d10 k3, PS) the figure was 36%; with TCCAATACAGGCCATA (sugars k3 d10 k3, PS), 62%; with AATTCACTATCTCCCT (sugars k3 d10 k3, PS), 10%.
Regarding AGAGCATAAGTTACCA (sugars k3 d10 k3, PS), the target mRNA inhibition reads like this: (0.02 µM) 4%; (0.078 µM) 11%; (0.313 µM) 50%; (1 µM) 88%; (1.25 µM) 78%; (5 µM) 79%.
As to AGTATAGTTATCTTCT (sugars k3 d10 k3, PS), the target mRNA inhibition (1 µM) worked out at 67%.
In the case of “CGGTCACCTTTCATAA (sugars k3 d1 m1 d8 k3, PS)”, the target mRNA inhibition (1 µM) was determined as 42%.
CCAGAAGTATGTGAAC (sugars k3 d10 k3, PS): the target mRNA inhibition (1 µM) is 8%.
The same measure, in the same setting: with TCAGTATCCCCTCAAA (sugars k3 d10 k3, PS) the figure was 64%.
Still for that read-out and setting: with CACTTTCACTGGGTGT (sugars k3 d10 k3, PS) the figure was 7%; with CAGAAGGATTTCTAGG (sugars k3 d10 k3, PS), 43%; with “TATTCTGTGGCATGGC (sugars kkdddddddddkekek, PS)”, 57%.
As for TATTATGTGATTGAGT (sugars k3 d10 k3, PS), the target mRNA inhibition is, setting by setting: (0.02 µM) 60% and 50%; (0.078 µM) 69%; (0.313 µM) 68%; (1 µM) 86%; (1.25 µM) 76%.
CTAAAGGTTTCTGTTG (sugars k3 d10 k3, PS) registered a target mRNA inhibition (1 µM) of 34%.
The same measure, in the same setting: for AGTCTTGATGTAGTGG (sugars k3 d10 k3, PS) the value was 63%; for CAATCTAGCAACCTCT (sugars k3 d10 k3, PS), 51%.
On the same count and under the same terms, for ACTAATATTGAGGCAC (sugars k3 d10 k3, PS) the value was 19%; for GCTGTAATTAGGAAGA (sugars k3 d10 k3, PS), 24%; for “TCTAAGTTAGCCCCCA (sugars kkdddddddddkekek, PS)”, 19%.
The same measure, in the same setting: for AGTTTAGATTGCATAA (sugars k3 d10 k3, PS) the value was 50%; for CTCTTATCTGATATGA (sugars k3 d10 k3, PS), 7%.
For TTTGAGAGAACTTATA (sugars k3 d10 k3, PS), the target mRNA inhibition (1 µM) came out at 0%.
Take GGTGCTGAGAAGATCG (sugars k3 d10 k3, PS): the target mRNA inhibition (1 µM) was found to be 33%.
On to CCACTTTTGGTGGACT (sugars k3 d10 k3, PS), for which the target mRNA inhibition (1 µM) stood at 17%.
Still for that read-out and setting: with CCTGTGTAAATAAGTT (sugars k3 d10 k3, PS) the figure was 18%; with “ACTTGAACAGTCTTAA (sugars k3 d1 m1 d8 k3, PS)”, 29%.
On the same count and under the same terms, with “CCTCUAAGTTAGCCCC (sugars k3 d1 m1 d8 k3, PS)” the figure was 8%.
Where the note is “1 µM”, GGCATTAGATGGTAAG (sugars k3 d10 k3, PS) displayed a target mRNA inhibition of 62%.
Still for that read-out and setting: with TGGAAACATGCTTGGC (sugars k3 d10 k3, PS) the figure was 62%; with AGAGGGTCCACTTTTG (sugars k3 d10 k3, PS), 34%.
Regarding “CTGCUAGTGCCAAACC (sugars k3 d1 m1 d8 k3, PS)”, the target mRNA inhibition (1 µM) was 67%.
“AATCACAAGTAAGGTA (sugars k3 d1 m1 d8 k3, PS)” showed a target mRNA inhibition (1 µM) of 31%.
Same read-out and setting: for “TCTTAGCTGTGCACTC (sugars k3 d9 k3 e1, PS)” the value was 52%; for “ATCAAGACATTCTAGC (sugars k3 d9 k3 e1, PS)”, 52%; for GTGTAAATAAGTTCTC (sugars k3 d10 k3, PS), 61%.
As to CGGCTGGATATACTGT (sugars k3 d10 k3, PS), the target mRNA inhibition (1 µM) was determined as 35%.
GAAAAGATGTACACTG (sugars k3 d10 k3, PS) yielded a target mRNA inhibition (1 µM) of 56%.
Still for that read-out and setting: for “AGTAGTGTAAGCTGAG (sugars k3 d1 m1 d8 k3, PS)” the value was 68%.
The sequence “AGGCTGTAAGAGTCAG (sugars k3 d9 k3 e1, PS)” showed a target mRNA inhibition (1 µM) of 49%.
On the same count and under the same terms, with “AAAAUAGAGTCGGTCA (sugars k3 d1 m1 d8 k3, PS)” the figure was 62%.
Same read-out and setting: with ACCCGCCCTTAAGTCA (sugars k3 d10 k3, PS) the figure was 48%; with GCAAAGTTTGGGCAGA (sugars k3 d10 k3, PS), 50%; with CCAAGTAGGAGTAGAT (sugars k3 d10 k3, PS), 19%.
Same read-out and setting: for AGACAGACTGTTGAGC (sugars k3 d10 k3, PS) the value was 74%; for GTTCTGATGTCAGACC (sugars k3 d10 k3, PS), 55%.
Take TAGGGAGGTAGCTTTT (sugars k3 d10 k3, PS): for the setting “1 µM”, the target mRNA inhibition is 46%.
Sequence CTAGGATGTTGACCTC (sugars k3 d10 k3, PS) showed a target mRNA inhibition (1 µM) of 0%.
In the case of GAGGTATGTCATACTT (sugars k3 d10 k3, PS), the target mRNA inhibition (1 µM) was found to be 29%.
Turning to CTGGAAGGAGGATTCA (sugars k3 d10 k3, PS), for the setting “1 µM”, the target mRNA inhibition was 39%.
The same measure, in the same setting: with “CCTCGATCCTATATAC (sugars kkdddddddddkekek, PS)” the figure was 3%; with TACACTAATATTGAGG (sugars k3 d10 k3, PS), 30%; with TTAGGAAAGCTCATGG (sugars k3 d10 k3, PS), 26%.
The same measure, in the same setting: with TGTTAGCTAAGGGAGA (sugars k3 d10 k3, PS) the figure was 0%.
The same measure, in the same setting: with TCACCTTTCATAATGT (sugars k3 d10 k3, PS) the figure was 63%; with “ATGAAGTTAGTATAGT (sugars k3 d1 m1 d8 k3, PS)”, 38%.
In the case of GAGTCGGTCACCTTTC (sugars k3 d10 k3, PS), the target mRNA inhibition came to 0% (0.02 µM); 30% (0.078 µM); 55% (0.313 µM); 82% (1 µM); 82% (1.25 µM); 82% (5 µM).
Sequence CAAGTTTGTTCATAGT (sugars k3 d10 k3, PS) yielded a target mRNA inhibition (1 µM) of 78%.
For the setting “1 µM”, CTATTAGTTGGCCTGC (sugars k3 d10 k3, PS) gave a target mRNA inhibition of 32%.
Same read-out and setting: for “TTATGTGATTGAGTTC (sugars k3 d9 k3 e1, PS)” the value was 30%; for “TGATGTAGTGGGAGTC (sugars k3 d1 m1 d8 k3, PS)”, 43%; for TCTTGACAATGGTTGC (sugars k3 d10 k3, PS), 77%.

Values taken from the OligoGym collection.
